36 compounds from patent US10597366B2, “Aryl ethers and uses thereof” (Peloton Therapeutics, Inc., priority 2013, dated 2020) can be followed below.

One assay has as its system 786-O-Hif-Luc cells (luciferase gene driven by multiple HIF responsive elements). As to the kind of experiment: Luciferase Assay. The conditions noted are these: 24 h, 786-O-Hif-Luc cells, about 24 hours; read-out: Mean Luciferease EC50. The class given is cell-based. How it is done:
A pool of infected cells were then selected against 2 μg/mL of puromycin (P8833, Sigma) for 10 days followed by limited dilution to select single clones.
Each concentration was tested in triplicate. After about 24 hours, luciferase activity was determined using ONE-Glo Luciferase Assay Reagent (E6110, Promega) following the manufacturer's recommended procedure. EC50 were calculated by using Dotmatics software.
What is called EC50 is the concentration that produces a half-maximal response. Take `O=S(=O)(c1ccc(Oc2cc(F)cc(Cl)c2)c(Br)c1)C(F)F` [Compound 131, 2-Bromo-1-(3-chloro-5-fluorophenoxy)-4-((difluoromethyl)sulfonyl)benzene]: the EC50 is 2000 nM.
For the compound `N#Cc1cc(F)cc(Oc2ccc(S(=O)(=O)C(F)F)cc2C#N)c1` [Compound 134, 2-(3-Cyano-5-fluorophenoxy)-5-((difluoromethyl)sulfonyl)benzonitrile], the EC50 is 2300 nM.
As to `Cc1cc(S(=O)(=O)C(F)F)ccc1Oc1cc(F)cc(Cl)c1` [Compound 135, 1-(3-Chloro-5-fluoro-phenoxy)-4-(difluoromethylsulfonyl)-2-methyl-benzene], the EC50 is 5400 nM.
Turning to `Cc1cc(S(=O)(=O)C(F)F)ccc1Oc1cc(F)cc(C#N)c1` [Compound 136, 3-[4-(Difluoromethylsulfonyl)-2-methyl-phenoxy]-5-fluoro-benzonitrile], the concentration giving a half-maximal response (EC50) amounted to 2400 nM.
As to `Cc1c(Oc2cc(F)cc(Cl)c2)ccc(S(=O)(=O)C(F)(F)F)c1Br` [Compound 140, 3-Bromo-1-(3-chloro-5-fluoro-phenoxy)-2-methyl-4-(trifluoromethylsulfonyl)benzene], the EC50 turned out to be 2400 nM.
As for `Cc1c(Oc2cc(F)cc(Cl)c2)ccc(S(=O)(=O)C(F)(F)F)c1Cl` [Compound 143, 3-Chloro-1-(3-chloro-5-fluoro-phenoxy)-2-methyl-4-(trifluoromethylsulfonyl)benzene], the EC50 was determined as 1200 nM.
Still for that read-out and setting: with `Cc1c(Oc2cc(F)cc(C#N)c2)ccc(S(=O)(=O)C(F)(F)F)c1Cl` [Compound 144, 3-Fluoro-5-[3-chloro-2-methyl-4-(trifluoromethylsulfonyl)phenoxy]benzonitrile] the figure was 390 nM; with `Cc1c(Oc2cc(F)cc(C#N)c2)ccc(S(=O)(=O)C(F)(F)F)c1C=O` [Compound 145, 3-Fluoro-5-[3-formyl-2-methyl-4-(trifluoromethylsulfonyl)phenoxy]benzonitrile], 430 nM.
As for `Cc1c(Oc2cc(F)cc(C#N)c2)ccc(S(=O)(=O)C(F)(F)F)c1CO` [Compound 146, 3-Fluoro-5-[3-(hydroxymethyl)-2-methyl-4-(trifluoromethylsulfonyl)phenoxy]benzonitrile], the EC50 was found to be 480 nM.
Consider `COC(=O)/C=C/c1c(S(=O)(=O)C(F)(F)F)ccc(Oc2cc(F)cc(C#N)c2)c1C` [Compound 147, Methyl (E)-3-[3-(3-cyano-5-fluoro-phenoxy)-2-methyl-6-(trifluoromethylsulfonyl)phenyl]prop-2-enoate], for which the EC50 was determined as 7600 nM.
As to `CCOC(=O)/C=C/c1c(S(=O)(=O)C(F)(F)F)ccc(Oc2cc(F)cc(C#N)c2)c1C` [Compound 148, Ethyl (E)-3-(3-(3-cyano-5-fluorophenoxy)-2-methyl-6-((trifluoromethyl)sulfonyl)phenyl)acrylate], the EC50 was determined as 5600 nM.
Turning to `Cc1nnc(/C=C/c2c(S(=O)(=O)C(F)(F)F)ccc(Oc3cc(F)cc(C#N)c3)c2C)o1` [Compound 151, 3-Fluoro-5-[2-methyl-3-[(E)-2-(5-methyl-1,3,4-oxadiazol-2-yl)vinyl]-4-(trifluoromethylsulfonyl)phenoxy]benzonitrile], the EC50 was 8900 nM.
On to `CS(=O)(=O)c1ccc(Oc2cc(F)cc(C#N)c2)c(C#N)c1Cl` [Compound 152, 2-chloro-6-(3-cyano-5-fluorophenoxy)-3-(methylsulfonyl)benzonitrile], for which the EC50 is 2100 nM.
Still for that read-out and setting: the figure for `O=S(=O)(c1ccc(Oc2ccc(F)c(Cl)c2)c2c1[C@H](O)CC2)C(F)F` [Compound 157, (1R)-4-(3-Chloro-4-fluoro-phenoxy)-7-(difluoromethylsulfonyl)indan-1-ol] is 2500 nM; for `CS(=O)(=O)c1ccc(Oc2cc(F)cc(Cl)c2)c2c1[C@H](O)C(F)(F)C2` [Compound 160, (1S)-4-(3-Chloro-5-fluoro-phenoxy)-2,2-difluoro-7-methylsulfonyl-indan-1-ol] it is 10 nM.
Still for that read-out and setting: the figure for `CS(=O)(=O)c1ccc(Oc2cccc(C#N)c2)c2c1[C@H](O)C(F)(F)C2` [Compound 162, 3-[(1S)-2,2-Difluoro-1-hydroxy-7-methylsulfonyl-indan-4-yl]oxybenzonitrile] is 63 nM; for `O=S(=O)(c1ccc(Oc2cc(F)cc(F)c2)c(Cl)c1CO)C(F)F` [Compound 168, (2-Chloro-6-((difluoromethyl)sulfonyl)-3-(3,5-difluorophenoxy)phenyl)methanol] it is 310 nM; for `O=S(=O)(c1ccc(Oc2cc(Cl)cc(Cl)c2)c(Br)c1)C(F)(F)F` [Compound 172, 2-Bromo-1-(3,5-dichlorophenoxy)-4-((trifluoromethyl)sulfonyl)benzene] it is 3410 nM.
Turning to `O=C1c2c(S(=O)(=O)C(F)F)ccc(Oc3cncc(Cl)c3)c2CC1(F)F` [Compound 182, 4-((5-Chloropyridin-3-yl)oxy)-7-((difluoromethyl)sulfonyl)-2,2-difluoro-2,3-dihydro-1H-inden-1-one], the EC50 worked out at 4000 nM.
Still for that read-out and setting: with `O=S(=O)(CF)c1ccc(Oc2cncc(Cl)c2)c2c1[C@H](O)C(F)(F)C2` [Compound 187, (S)-4-((5-Chloropyridin-3-yl)oxy)-2,2-difluoro-7-((fluoromethyl)sulfonyl)-2,3-dihydro-1H-inden-1-ol] the figure was 98 nM.
`CS(=N)(=O)c1ccc(Oc2cc(F)cc(F)c2)c2c1C(O)CC2` (stereo not drawn) [Compound 190, (7-(3,5-Difluorophenoxy)-3-hydroxy-2,3-dihydro-1H-inden-4-yl)(imino)(methyl)-λ^6-sulfanone]: the EC50 was 12700 nM.
Regarding `CS(=N)(=O)c1ccc(Oc2cc(F)cc(F)c2)c2c1[C@H](O)C(F)(F)C2` (stereo partly drawn) [Compound 192, ((S)-7-(3,5-Difluorophenoxy)-2,2-difluoro-3-hydroxy-2,3-dihydro-1H-inden-4-yl)(imino)(methyl)-λ^6-sulfanone], the EC50 was 280 nM.
On the same count and under the same terms, the figure for `O=S(=O)(c1ccc(Oc2ccc(F)c(Br)c2)c2c1[C@H](O)C(F)(F)C2)C(F)F` [Compound 194, (S)-4-(3-Bromo-4-fluorophenoxy)-7-((difluoromethyl)sulfonyl)-2,2-difluoro-2,3-dihydro-1H-inden-1-ol] is 330 nM; for `O=C1c2c(S(=O)(=O)C(F)F)ccc(Oc3ccc(F)c(F)c3)c2CC1(F)F` [Compound 195, 7-((Difluoromethyl)sulfonyl)-4-(3,4-difluorophenoxy)-2,2-difluoro-2,3-dihydro-1H-inden-1-one] it is 2560 nM; for `Cc1cc(Oc2ccc(S(=O)(=O)C(F)F)c3c2CC(F)(F)[C@H]3O)ccc1F` [Compound 198, (S)-7-((Difluoromethyl)sulfonyl)-2,2-difluoro-4-(4-fluoro-3-methylphenoxy)-2,3-dihydro-1H-inden-1-ol] it is 290 nM.
On the same count and under the same terms, the figure for `N#Cc1cc(Oc2ccc(S(=O)(=O)C(F)F)c3c2CC(F)(F)[C@H]3O)ccc1F` [Compound 200, (S)-5-((7-((Difluoromethyl)sulfonyl)-2,2-difluoro-1-hydroxy-2,3-dihydro-1H-inden-4-yl)oxy)-2-fluorobenzonitrile] is 130 nM; for `N#Cc1cc(F)cc(Oc2ccc(S(=O)(=O)C(F)F)c3c2CCC3F)c1` (stereo not drawn) [Compound 202, 3-((7-((Difluoromethyl)sulfonyl)-1-fluoro-2,3-dihydro-1H-inden-4-yl)oxy)-5-fluorobenzonitrile] it is 3600 nM.
Turning to `N#Cc1cc(F)cc(Oc2ccc(S(=O)(=O)C(F)F)c3c2CC(F)(F)[C@H]3N)c1` [Compound 207, (S)-3-((1-Amino-7-((difluoromethyl)sulfonyl)-2,2-difluoro-2,3-dihydro-1H-inden-4-yl)oxy)-5-fluorobenzonitrile], the EC50 turned out to be 830 nM.
Same read-out and setting: with `N#Cc1cc(F)cc(Oc2ccc(S(=O)(=O)C3CCC3)c3c2CC(F)(F)[C@H]3O)c1` [Compound 209, (S)-3-((7-(Cyclobutylsulfonyl)-2,2-difluoro-1-hydroxy-2,3-dihydro-1H-inden-4-yl)oxy)-5-fluorobenzonitrile] the figure was 1900 nM; with `O=S(=O)(c1ccc(Oc2ccc(F)cc2)c2c1C(O)CC2)C(F)(F)F` (stereo not drawn) [Compound 212, 4-(4-Fluorophenoxy)-7-((trifluoromethyl)sulfonyl)-2,3-dihydro-1H-inden-1-ol], 1600 nM.

Still in this assay, the particulars now being: 24 h, read-out: Mean Luciferease EC50.
As for `N#Cc1cc(F)cc(Oc2ccc(S(=O)(=O)C(F)F)c3c2CC[C@H]3O)c1` [Compound 155, 3-[(1R)-7-(difluoromethylsulfonyl)-1-hydroxy-indan-4-yl]oxy-5-fluoro-benzonitrile], the EC50 was found to be 130 nM.
Same read-out and setting: the figure for `N#Cc1cccc(Oc2ccc(S(=O)(=O)C(F)F)c3c2CC[C@H]3O)c1` [Compound 156, 3-[(1R)-7-(Difluoromethylsulfonyl)-1-hydroxy-indan-4-yl]oxybenzonitrile] is 350 nM; for `CS(=O)(=O)c1ccc(Oc2cc(F)cc(C#N)c2)c2c1[C@H](O)C(F)(F)C2` [Compound 163, (S)-3-((2,2-Difluoro-1-hydroxy-7-(methylsulfonyl)-2,3-dihydro-1H-inden-4-yl)oxy)-5-fluorobenzonitrile] it is 23 nM.
Consider `CS(=O)(=O)c1ccc(Oc2cc(F)cc(C#N)c2)c2c1[C@H](N)C(F)(F)C2` [Compound 165, 3-[(1S)-1-Amino-2,2-difluoro-7-methylsulfonyl-indan-4-yl]oxy-5-fluoro-benzonitrile], for which the EC50 stood at 240 nM.
On the same count and under the same terms, with `N#Cc1cc(Cl)cc(Oc2ccc(S(=O)(=O)CF)c3c2CC(F)(F)[C@H]3O)c1` [Compound 167, (S)-3-Chloro-5-((2,2-difluoro-7-((fluoromethyl)sulfonyl)-1-hydroxy-2,3-dihydro-1H-inden-4-yl)oxy)benzonitrile] the figure was 16 nM; with `CCS(=O)(=O)c1ccc(Oc2cc(F)cc(C#N)c2)c2c1[C@H](O)C(F)(F)C2` [Compound 206, (S)-3-((7-(Ethylsulfonyl)-2,2-difluoro-1-hydroxy-2,3-dihydro-1H-inden-4-yl)oxy)-5-fluorobenzonitrile], 62 nM.
